Results taken from patent US9682130B2 (priority 2015, dated 2017).
≈ marks a conversion by molar mass, not a printed value. Like-named read-outs stand apart in the source and are kept apart here. Each block holds one molecule with its values, some of them ahead of it.

Legend:
[1] = Eye irritation, Draize scale (MMTS), Ad5/NZW rabbit ocular model; format: in vivo; settings: NZW, rabbit, in vivo
Description: (§1) To conduct this in vivo assay, 25 NZW rabbit were anesthetized using the general anesthesia ketamine and xylazine and the topical anesthesia proparacaine. Each rabbit was then topically inoculated with 50 μL of Adenovirus serotype Ad5 (3×10^7 pfu/mL) in both eyes after corneal epithelial scarification (12 cross-hatched strokes of a 25 sterile needle). Eyes were closed and gently rubbed for 5 seconds to ensure contact of the virus on all ocular surfaces. Inoculation of both eyes allowed for the reduction in the number of animals needed without jeopardizing statistical validity. […] All topical solutions (37 μL drops) were instilled with an electronic pipette (EDP; Rainin, Oakland, Calif.) set in the multi-dispense mode. Ocular swabbing to recover adenovirus from tear film and corneal and conjunctival surfaces, after topical anesthesia with proparacaine, was performed at least 1 hour after the final dose on days 0, 1, 3, 4, 5, 7, 9, 11, and 14 after inoculation. The ocular samples from each eye was placed individually into tubes containing 1 mL of medium and were frozen at −70° C. pending viral plaque assay.
The animals were assayed for eye irritation using a Draize scale for ocular lesions. Classification of eye irritation was evaluated for both eyes of each rabbit on day 3 and day 9 using the maximum mean total score (MMTS; Table 4). See, e.g., Kay and Calandra, Interpretation of Eye Irritation Tests, J. Soc. Cos. Chem. 13: 281-289 (1962), the content of which is hereby incorporated by reference in its entirety. The MMTS score used was as follows: 0.0-0.5, Non-Irritating (N); 0.6-2.5, Practically Non-Irritating (PN); 2.6-15.0, Minimally Irritating (M1); 15.1-25.0, Mildly Irritating (M2); 25.1-50.0, Moderately Irritating (M3); 50.1-80.0, Severely Irritating (S); 80.1-100.0, Extremely Irritating (E); and 100.1-110.0, Maximally Irritating (Mx).

[2] = system: Adenovirus serotype Ad5; experiment: Ad5/NZW rabbit ocular replication model, plaque assay of ocular samples; format: in vivo; settings: 0.5% Cidofovir, twice daily 7 days
Description: See, e.g., Romanowski, et al., The In Vitro and In Vivo Evaluation of ddC as a Topical Antiviral for Ocular Adenovirus Infections, Invest. Ophthalmol. Vis. Sci. 50: 5295-5299 (2009), which is hereby incorporated by reference in its entirety.
as §1, with “surfaces.” for “surfaces. Inoculation of both eyes allowed for the reduction in the number of animals needed without jeopardizing statistical validity.”
The ocular samples were assayed for Ad5 titers by performing a plaque reduction assay. Samples were diluted 1:10 and these dilutions were inoculated onto duplicate wells of a 24 well multi-plate containing A549 monolayers. The virus was adsorbed for 3 hours at 37° C. in a 5% CO2-water vapor atmosphere without constant rocking. After adsorption, 1 mL of medium plus 0.5% methylcellulose was added to each well, and the plates were incubated at 37° C. in a 5% CO2-water vapor atmosphere. After 7 days, the cells were stained with 0.5% gentian violet, and the number of plaques counted using a dissecting microscope (25×). The viral titers were then calculated, and will be expressed as plaque-forming units per milliliter (PFU/mL). Data from the study were analyzed using analysis of variance (ANOVA) with Fisher's pair-wise comparisons and X^2 analyses using True Epistat and/or Minitab statistical software. Significance was established at the P≦0.05 confidence level.

[3] = in vitro; settings: African green monkey
[4] = system: Human Adenovirus 8 (Ad8 strain 13306); experiment: CPE reduction assay, Adenovirus 8; format: cell-based; settings: MA104; Adenovirus 8, MA-104 cells
Description: (§2) To assess in vitro cytotoxicity, both a cytopathic effects of a virus (CPE) regression assay and a neutral red lysosomal uptake cell viability assay was performed essentially as described in, e.g., Repetto, et al., Neutral Red Uptake Assay for the Estimation of Cell Viability/Cytotoxicity, Nat. Protoc. 3: 1125-1131 (2008), the content of which is hereby incorporated by reference in its entirety. Ninety-six-well plates were seeded with MA-104 cells at 1×10^5 cells/mL and incubated overnight at 37° C. with 5% CO2. […] Each dilution was added to 5 wells of a 96-well plate with 80% to 100% confluent cells, and three wells of each dilution were then infected with one of the two test viruses. Two wells remained uninfected as controls for toxicity. Six wells per plate were set aside as uninfected, untreated cell controls, and six wells per plate were infected with no treatment as virus controls. […] Assay plates were incubated at 37° C. with 5% CO2. […] After CPE reduction assay was completed, a neutral red lysosomal uptake assay was conducted by filling each well with 0.011% (m/v) neutral red, a vital stain. The plates then were incubated for about 2 hours at 37° C. in the dark. […] The plates were then read on a spectrophotometer at 540 nm to quantify the neutral red taken up by the healthy cells. […]

[5] = system: Human Adenovirus 8 (Ad8 strain 13306); experiment: Neutral red lysosomal uptake assay, Adenovirus 8; format: cell-based; settings: MA104; Adenovirus 8, MA-104 cells
Description: as §2

[6] = system: MA-104 cells; settings: African green monkey
[7] = system: Human Adenovirus 5 (AD5 strain NYS #98-1836); experiment: microbe, parasite or virus in culture; format: cell-based; settings: Human mastadenovirus C, MA104, Adenovirus 5, MA-104 cells
Description: To assess in vitro cytotoxicity, both a cytopathic effects of a virus (CPE) regression assay and a neutral red lysosomal uptake cell viability assay was performed essentially as described in, e.g., Repetto, et al., Neutral Red Uptake Assay for the Estimation of Cell Viability/Cytotoxicity, Nat. Protoc. 3: 1125-1131 (2008), the content of which is hereby incorporated by reference in its entirety. Ninety-six-well plates were seeded with MA-104 cells at 1×10^5 cells/mL and incubated overnight at 37° C. with 5% CO2. […] Each dilution was added to 5 wells of a 96-well plate with 80% to 100% confluent cells, and three wells of each dilution were then infected with one of the two test viruses. Two wells remained uninfected as controls for toxicity. Six wells per plate were set aside as uninfected, untreated cell controls, and six wells per plate were infected with no treatment as virus controls. […] Assay plates were incubated at 37° C. with 5% CO2. […] After CPE reduction assay was completed, a neutral red lysosomal uptake assay was conducted by filling each well with 0.011% (m/v) neutral red, a vital stain. The plates then were incubated for about 2 hours at 37° C. in the dark. The unincorporated neutral red solution was removed from the wells and the incorporated dye was then eluted by adding Sorensen's citrate-buffered ethanol. The plates were then read on a spectrophotometer at 540 nm to quantify the neutral red taken up by the healthy cells. The optical density of test wells was converted to percent of cell control and normalized to the virus controls.
The concentration of test compound required to inhibit CPE by 50% or reduce red uptake into cells by 50% (EC50) was calculated by regression analysis. The toxicity of the compound without virus present was similarly calculated using the uninfected wells treated with test compounds compared with untreated cell controls. The concentration of compound that would cause 50% cytotoxic effects in the absence of virus (CC50) was estimated by linear regression analysis. The selectivity index (SI) is the CC50 divided by EC50.

SMILES: Nc1ccn(C[C@@H](CO)OCP(=O)(O)O)c(=O)n1 [CDV, Cidofovir, reference compound]
Ocular irritation MMTS score, Day 3 ([1]; 3 day): 5.9
Ocular irritation MMTS score, Day 9 ([1]; 9 day): 27.5
Ad5-positive ocular samples, percent, Day 1 [2]: 100%
Ad5-positive ocular samples, percent, Day 3 [2]: 100%
Ad5-positive ocular samples, percent, Day 4 [2]: 100%
Ad5-positive ocular samples, percent, Day 5 [2]: 100%
Ad5-positive ocular samples, percent, Day 7 [2]: 63%
Ad5-positive ocular samples, percent, Day 11 [2]: 0%
Ad5-positive ocular samples, percent, Day 14 [2]: 0%
Ad5-positive ocular samples, percent, Total [2]: 66.1%
Ad5-positive ocular samples/total eyes, Day 1 [2]: 8/8
Ad5-positive ocular samples/total eyes, Day 3 [2]: 8/8
Ad5-positive ocular samples/total eyes, Day 4 [2]: 8/8
Ad5-positive ocular samples/total eyes, Day 5 [2]: 8/8
Ad5-positive ocular samples/total eyes, Day 7 [2]: 5/8
Ad5-positive ocular samples/total eyes, Day 11 [2]: 0/8
Ad5-positive ocular samples/total eyes, Day 14 [2]: 0/8
Ad5-positive ocular samples/total eyes, Total [2]: 37/56

EC50 [4]: 2.1 µg/mL (≈ 9.94 µM)
EC50 ([7]; read-out: CPE Reduction Assay EC50): 2.1 µg/mL (≈ 9.94 µM)
SMILES: Nc1ccn([C@H]2CC[C@@H](CO)O2)c(=O)n1 [ddC, 2′, 3′-Dideoxycytidine]
CC50 [3]: < 5000 µg/mL
EC50 [5]: 2.7 µg/mL (≈ 12.8 µM)
CPE Reduction Assay CC50 [6]: <5000 µg/mL
Neutral Red Assay CC50 [6]: <5000 µg/mL
EC50 ([7]; read-out: Neutral Red Assay EC50): 2.7 µg/mL (≈ 12.8 µM)
